According to US11584727B2, “2-thioxothiazolidin-4-one derivatives active as transthyretin ligands and uses thereof” (BSIM Therapeutics, S.A., priority 2014, dated 2023):

Legend:
[1] = biological target: T1, thyroxine-binding globulin (TBG) (Homo sapiens, UniProt P05543); assay: Thyroxine (T4) binding competition by gel electrophoresis in plasma, TBG band; details: [125I]T4, in presence of compound
T1 construct: from tissue; host or cells: human plasma
T1 sequence (P05543 21-415): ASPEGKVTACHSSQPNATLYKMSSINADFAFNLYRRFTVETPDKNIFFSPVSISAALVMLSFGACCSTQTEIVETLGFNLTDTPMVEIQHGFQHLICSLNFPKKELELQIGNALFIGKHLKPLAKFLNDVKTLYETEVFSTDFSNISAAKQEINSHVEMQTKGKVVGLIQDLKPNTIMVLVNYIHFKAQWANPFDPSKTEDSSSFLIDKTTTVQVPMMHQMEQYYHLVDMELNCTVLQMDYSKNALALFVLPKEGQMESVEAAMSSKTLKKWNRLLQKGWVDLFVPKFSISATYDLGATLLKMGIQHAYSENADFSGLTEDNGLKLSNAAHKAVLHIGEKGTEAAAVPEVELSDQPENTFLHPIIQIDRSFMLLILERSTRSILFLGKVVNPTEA
Protocol: (§1) Briefly, upon incubation of human plasma in the presence of the test compounds and radio-labeled T4 ([125I]T4), the samples are subjected to native PAGE. After electrophoresis, the gels are dried, subjected to phosphor imaging, and the intensity of the protein bands is then compared. […] The intensity of the bands decreases, as compared to the control samples (absence of compound), if the compound binds to the protein(s) competing with T4.
FIG. 24 presents the results of these experiments, where the bands in the gel correspond to the major T4 binding plasma proteins. […] The results were analyzed by calculation of the TTR/total (TTR+ALB+TBG) ratio for each sample collected at different time points. The displacement of T4 from TTR is calculated and plotted as the difference between the average of ratios of TTR/total protein for each control sample and the average of the ratios of TTR/total protein. […]
(§2) Five (5) μL of human plasma plus 0.25-0.5 μL of [125I]T4 (specific radioactivity 1250 μCi/m; concentration 320 μCi/mL; Perkin Elmer, Boston, Mass., U.S.A.) plus 5 μL of PBS with glycerol 50% are incubated for 1 hour at room temperature (RT) and the samples are subjected to native PAGE. After electrophoresis, the gels are dried, subjected to phosphor imaging (Typhoon 8600; Molecular Diagnostics, Amersham Biosciences), and analyzed using the ImageQuant program version 5.1. […]

transthyretin (TTR) = biological target: T2, transthyretin (TTR) (Homo sapiens, UniProt P02766); assay: Thyroxine (T4) binding competition by gel electrophoresis in plasma, TTR band; details: for T4 bound to TTR: human plasma, [125I]T4, in presence of compound
T2 construct: from tissue; host or cells: human plasma
Protocol: as §1
FIG. 24 presents the results of these experiments, where the bands in the gel correspond to the major T4 binding plasma proteins. The intensity of the bands decreases, as compared to the control samples (absence of compound), if the compound binds to the protein(s) competing with T4. The results were analyzed by calculation of the TTR/total (TTR+ALB+TBG) ratio for each sample collected at different time points. The displacement of T4 from TTR is calculated and plotted as the difference between the average of ratios of TTR/total protein for each control sample and the average of the ratios of TTR/total protein.
The assay for the binding to TTR through competition with T4 is performed by T4 binding gel electrophoresis as previously described in reference.
as §2, with “5.1. The intensity of the protein bands is compared.” for “5.1.”
The results are analyzed by calculation of the TTR/total (TTR+ALB+TBG) ratio for each sample collected at different time points. The displacement of T4 from TTR is calculated as the difference between the average of ratios of TTR/total protein for each control sample and the average of the ratios of TTR/total protein.

[2] = HepG2 cell viability, resazurin reduction assay; type: cell-based; details: human, HepG2 hepatoma cells, approximately 72 hours incubation, read-out: inhibitory dose (ID50), cell viability
Excerpt: Cell viability of HepG2 hepatoma cells was quantified in order to assess the toxicity of the compounds at increasing concentrations. The used assay is described in detail in the “Experimental Evaluation of Cytotoxicity of Compounds using Cell-based Assays” section in “Materials and Methods”. This is a relevant assessment not just to discard potential concerns of liver damage (which is a problem reported for many drugs) but also because of the long-term nature of the treatments that patients suffering from TTR-mediated amyloidoses need to undertake.
Adherent human hepatoma cells HepG2 were cultured in DMEM (Dulbecco's Modified Eagle's Medium) with 10% fetal bovine serum (FBS), 100 U/mL penicillin, […] streptomycin, and 1 mM sodium pyruvate. The cells were grown in 75 cm^2 culture flasks at 37° C., in an atmosphere of 5% CO2, and subcultured twice a week using a trypsin-EDTA solution.
Upon 3 to 4 days of growth and reaching approximately 90% confluence, HepG2 cells were plated in 96-well microplates with cell density of 12×10^3 cells/well and in a volume of 100 μL per well.
The compounds are dissolved in DMSO and subsequently diluted in DMEM (in 9 intermediate […] concentrations). After adhesion of HepG2 cells to the microplates, […] 100 μL of each solution of intermediate compound concentration were added to each well (in quadruplicate). Positive controls were done with 10 wells containing only cells; solvent controls resulted from the analysis of the three highest DMSO concentrations tested and were carried out in triplicate.
After addition of the compounds to the cells, the microplates were incubated for approximately 72 hours at 37° C. in an atmosphere of 5% CO2 until the cell viability assay was performed.
The cell viability of HepG2 cells in the presence of test compounds was assessed by the resazurin reduction assay. Resazurin is a redox indicator that is converted into resorufin through reduction reactions of metabolically active cells. In the oxidized form it presents a purplish blue color, while the reduced form presents a purple-pink color.
A stock solution of 0.01% resazurin in PBS is diluted 1:10 in incomplete RPMI 1640 cell medium (without addition of antibiotics and FBS). After washing the cells with 200 μL PBS containing Ca^2+ and Mg^2+, 200 μL of resazurin 0.001% are added to the wells. Control runs with incomplete RPMI 1640 medium only and (without cells) are done in triplicate. […]
To quantify the reduction of resazurin to resorufin, microplate absorbance readings were taken at two wavelengths, 540 nm (reduced form) and 630 nm (oxidized form), in a Biotek spectrophotometer microplate reader. The percentage of viable cells at each compound concentration is determined using the formula: […]

SMILES | T4 bound to TBG [1] | competition with T4 (in words) (transthyretin (TTR); T4 competition and gel electrophoresis) | T4 bound to TTR (transthyretin (TTR)) | IC50 at 72 h [2]
COc1cc(/C=C2\SC(=S)N(CC(=O)O)C2=O)cc(Cl)c1O [AT50-A00 (Z), (Z)-3-hydroxycarbonylmethyl-5-(3′-chloro-4′-hydroxy-5′-methoxyphenylmethylidene)-2-thioxothiazolidin-4-one] | 54.3% | competes with T4 | 14.2% | > 400 µM
O=C(O)c1ccc2nc(-c3cc(Cl)cc(Cl)c3)oc2c1 [Tafamidis, reference compound] | 53.6% | – | 14.4% | ~250 µM
